Results from ChEMBL document CHEMBL1153961, “Antiproliferative and antimalarial anthraquinones of Scutia myrtina from the Madagascar forest” (Bioorg Med Chem, 2009).

Tests used:
A2780 = experiment: Cytotoxicity against human A2780 cells; format: cell-based
Plasmodium falciparum [1] = experiment: Antiplasmodial activity against chloroquine-resistant Plasmodium falciparum Dd2 by SYBR green assay; format: functional, organism-based
[2] = Selectivity index, ratio of IC50 for human A2780 cells to IC50 for Plasmodium falciparum Dd2; format: toxicity, cell-based; conditions: A2780 cells versus Plasmodium falciparum Dd2, read-out: Ratio IC50
Plasmodium falciparum [3] = experiment: Antiplasmodial activity against chloroquine-resistant Plasmodium falciparum FCM29 by SYBR green assay; format: functional, organism-based
[4] = Selectivity index, ratio of IC50 for human A2780 cells to IC50 for Plasmodium falciparum FCM29; format: toxicity, cell-based; conditions: A2780 cells versus Plasmodium falciparum FCM29, read-out: Ratio IC50

Compound: COC(=O)c1c(O)cc2c(c1C)C(=O)c1c(O)cccc1C2=O [ALOESAPONARIN I]
- IC50 (A2780): > 32 µM
- IC50 (Plasmodium falciparum [1]): 5.58 µM
- selectivity ratio [2]: > 5.7
- IC50 (Plasmodium falciparum [3]): 77.6 µM

Compound: CC(=O)O[C@H]1C(=O)[C@@]2(C)[C@H]([C@H](OC(=O)c3ccccc3)[C@]3(O)C[C@H](OC(=O)[C@H](O)[C@@H](NC(=O)c4ccccc4)c4ccccc4)C(C)=C1C3(C)C)[C@]1(OC(C)=O)CO[C@@H]1C[C@@H]2O [PACLITAXEL]
- IC50 (A2780): 0.014 µM

Compound: C=C[C@H]1CN2CC[C@H]1C[C@H]2[C@H](O)c1ccnc2ccc(OC)cc12 [QUININE]
- IC50 (Plasmodium falciparum [3]): 0.22 µM

Compound: CCC(C)C(=O)OC1(c2ccc3c(c2O)C(=O)c2c(cc(O)c(C(=O)OC)c2C)C3=O)c2cccc(O)c2C(=O)c2c1cc(O)c(C(=O)OC)c2C (stereo unspecified) [SCUTIANTHRAQUINONE A]
- IC50 (A2780): 7.6 µM
- IC50 (Plasmodium falciparum [1]): 1.23 µM
- selectivity ratio [2]: 6.1
- IC50 (Plasmodium falciparum [3]): 1.2 µM
- selectivity ratio [4]: 6.3

Compound: COC(=O)c1c(O)cc2c(c1C)C(=O)c1c(ccc(C3(OC(=O)C(C)C)c4cccc(O)c4C(=O)c4c3cc(O)c(C(=O)OC)c4C)c1O)C2=O (stereo unspecified) [SCUTIANTHRAQUINONE B]
- IC50 (A2780): 5.8 µM
- IC50 (Plasmodium falciparum [1]): 1.14 µM
- selectivity ratio [2]: 5.1
- IC50 (Plasmodium falciparum [3]): 5.4 µM
- selectivity ratio [4]: 1.1

Compound: COC(=O)c1c(O)cc2c(c1C)C(=O)c1c(ccc(C3(O)c4cccc(O)c4C(=O)c4c3cc(O)c(C(=O)OC)c4C)c1O)C2=O (stereo unspecified) [SCUTIANTHRAQUINONE C]
- IC50 (A2780): > 16 µM
- IC50 (Plasmodium falciparum [1]): 3.14 µM
- selectivity ratio [2]: > 5
- IC50 (Plasmodium falciparum [3]): 15.4 µM
- selectivity ratio [4]: > 1

Compound: CCC(C)C(=O)OC1(c2ccc3c(c2O)C(=O)c2c(cc(O)c(C(=O)OC)c2C)C3(OC(=O)C(C)CC)c2ccc3c(c2O)C(=O)c2c(cc(O)c(C(=O)OC)c2C)C3=O)c2cccc(O)c2C(=O)c2c1cc(O)c(C(=O)OC)c2C (stereo unspecified) [SCUTIANTHRAQUINONE D]
- IC50 (A2780): 4.3 µM
- IC50 (Plasmodium falciparum [1]): 3.68 µM
- selectivity ratio [2]: 1.2
- IC50 (Plasmodium falciparum [3]): 5.6 µM
- selectivity ratio [4]: 0.8
